Experimental findings from patent US20250230153A1, “2,3-DIHYDROBENZO[B][1,4]DIOXIN-6-YL CONTAINING COMPOUNDS USEFUL AS IMMUNOMODULATORS” (BRISTOL-MYERS SQUIBB COMPANY, priority 2021, published 2025) are described below.

Structures can show the parent of a compound that is named as a salt.

Chain of PD-1/PD-L1 (Q9NZQ7 18-239): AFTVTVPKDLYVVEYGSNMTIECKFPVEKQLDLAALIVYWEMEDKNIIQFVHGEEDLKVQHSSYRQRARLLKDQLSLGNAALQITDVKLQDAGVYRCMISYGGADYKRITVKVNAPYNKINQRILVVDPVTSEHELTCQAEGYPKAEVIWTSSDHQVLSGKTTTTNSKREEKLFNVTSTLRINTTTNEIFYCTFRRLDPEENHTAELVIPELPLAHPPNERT

This assay has as its target PD-1/PD-L1 (Homo sapiens (Human), UniProt Q9NZQ7). The assay is described as follows: PD-1/PD-L1 Homogenous Time-Resolved Fluorescence (HTRF) binding assay. To be noted: PD-1-Ig (20 nM final)/PD-L1-His (10 nM final) binding assay. The source says: The ability of the compounds of the invention to bind to PD-L1 was investigated using a PD-1/PD-L1 Homogenous Time-Resolved Fluorescence (HTRF) binding assay.
The interaction of PD-1 and PD-L1 can be assessed using soluble, purified preparations of the extracellular domains of the two proteins. The PD-1 and PD-L1 protein extracellular domains were expressed as fusion proteins with detection tags, for PD-1, the tag was the Fc portion of Immunoglobulin (PD-1-Ig) and for PD-L1 it was the 6 histidine motif (PD-L1-His). All binding studies were performed in an HTRF assay buffer consisting of dPBS supplemented with 0.1% […] bovine serum albumin and 0.05% (v/v) Tween-20. For the h/PD-L1-His binding assay, inhibitors were pre-incubated with PD-L1-His (10 nM final) for 15m in 4 μl of assay buffer, followed by addition of PD-1-Ig (20 nM final) in 1 μl of assay buffer and further incubation for 15 m. HTRF detection was achieved using europium crypate-labeled anti-Ig (1 nM final) and allophycocyanin (APC) labeled anti-His (20 nM final). Antibodies were diluted in HTRF detection buffer and 5 μl was dispensed on top of the binding reaction. The reaction mixture was allowed to equilibrate for 30 minutes and the resulting signal (665 nm/620 nm ratio) was obtained using an EnVision fluorometer. Additional binding assays were established between the human proteins PD-1-Ig/PD-L2-His (20 & 5 nM, respectively) and CD80-His/PD-L1-Ig (100 & 10 nM, respectively).
Recombinant Proteins: Human PD-1 (25-167) with a C-terminal human Fc domain of immunoglobulin G (Ig) epitope tag [hPD-1 (25-167)-3S-IG] and human PD-L1 (18-239) with a C-terminal His epitope tag [hPD-L1(18-239)-TVMV-His] were expressed in HEK293T cells and purified sequentially by ProteinA affinity chromatography and size exclusion chromatography. Human PD-L2-His and CD80-His was obtained through commercial sources.
Homogenous Time-Resolved Fluorescence (HTRF) Assays of Binding of Soluble PD-1 to Soluble PD-L1. Soluble PD-1 and soluble PD-L1 refers to proteins with carboxyl-end truncations that remove the transmembrane-spanning regions and are fused to heterologous sequences, specifically the Fc portion of the human immunoglobuling G sequence (Ig) or the hexahistidine epitope tag (His). All binding studies were performed in an HTRF assay buffer consisting of dPBS supplemented with 0.1% (w/v) bovine serum albumin and 0.05% (v/v) Tween-20. For the PD-1-Ig/PD-L1-His binding assay, inhibitors were pre-incubated with PD-L1-His (10 nM final) for 15m in 4 μl of assay buffer, followed by addition of PD-1-Ig (20 nM final) in 1 μl of assay buffer and further incubation for 15 m. PD-L1 fusion proteins from either human, cynomologous macaques, mouse, or other species were used. HTRF detection was achieved using europium crypate-labeled anti-Ig monoclonal antibody (1 nM final) and allophycocyanin (APC) labeled anti-His monoclonal antibody (20 nM final). Antibodies were diluted in HTRF detection buffer and 5 μl was dispensed on top of binding reaction. The reaction was allowed to equilibrate for 30 minutes and signal (665 nm/620 nm ratio) was obtained using an EnVision fluorometer. Additional binding assays were established between PD-1-Ig/PD-L2-His (20 and 5 nM, respectively), CD80-His/PD-L1-Ig (100 and 10 nM, respectively) and CD80-His/CTLA4-Ig (10 and 5 nM, respectively).
Recombinant Proteins. Carboxyl-truncated human PD-1 (amino acids 25-167) with a C-terminal human Ig epitope tag [hPD-1 (25-167)-3S-IG] and human PD-L1 (amino acids 18-239) with a C-terminal His epitope tag [hPD-L1(19-239)-tobacco vein mottling virus protease cleavage site (TVMV)-His] were expressed in HEK293T cells and purified sequentially by recombinant Protein A affinity chromatography and size exclusion chromatography. Human PD-L2-His (Sino Biologicals), CD80-His (Sino Biologicals), CTLA4-Ig (RnD Systems) were all obtained through commercial sources.
For orientation: Time-resolved FRET reads energy transfer from a long-lived donor to a nearby acceptor.
As usually defined, the IC50 is the concentration that inhibits the measured activity by half. Read a low IC50 as inhibition by little substance. Turning to `Cc1c(COc2cc(OC[C@@H](C)CO)c(CNC(C)(CO)CO)cc2Cl)cccc1-c1ccc2c(c1)OCCO2` [Example 1036, (S)-2-((5-Chloro-4-((3-(2,3-dihydrobenzo[b][1,4]dioxin-6-yl)-2-methylbenzyl)oxy)-2-(3-hydroxy-2-methylpropoxy)benzyl)amino)-2-methylpropane-1,3-diol], the IC50 was 4.6 nM. Next, `Cc1c(COc2cc(OCCN3CCC(O)(C(=O)O)CC3)c(CN[C@](C)(CO)C(=O)O)cc2Cl)cccc1-c1ccc2c(c1)OCCO2` [Example 1055, (R)-1-(2-(2-(((2-Carboxy-1-hydroxypropan-2-yl)amino)methyl)-4-chloro-5-((3-(2,3-dihydrobenzo[b]1[1,4]dioxin-6-yl)-2-methylbenzyl)oxy)phenoxy)ethyl)-4-hydroxypiperidine-4-carboxylic acid]: 0.4 nM; `Cc1cnc(COc2cc(OCc3cccc(-c4ccc5c(c4)OCCO5)c3C)c(Cl)cc2CN[C@H](CO)C(=O)O)cn1` [Example 1001, (R)-2-((5-Chloro-4-((3-(2,3-dihydrobenzo[b][1,4]dioxin-6-yl)-2-methylbenzyl)oxy)-2-((5-methylpyrazin-2-yl)methoxy)benzyl)amino)-3-hydroxypropanoic acid]: 4.5 nM. `COC(=O)C1(O)CCN(CCOc2cc(OCc3cccc(-c4ccc5c(c4)OCCO5)c3C)c(Cl)cc2CN[C@](C)(CO)C(=O)O)CC1` [Example 1052, (R)-2-((5-Chloro-4-((3-(2,3-dihydrobenzo[b][1,4]dioxin-6-yl)-2-methylbenzyl)oxy)-2-(2-(4-hydroxy-4-(methoxycarbonyl)piperidin-1-yl)ethoxy)benzyl)amino)-3-hydroxy-2-methylpropanoic acid] registered an IC50 of 1.3 nM.

Regarding `Cc1c(COc2cc(OCCCC(F)(F)F)c(CN[C@](C)(CO)C(=O)O)cc2Cl)cccc1-c1ccc2c(c1)OCCO2` [Example 1029, (R)-2-((5-Chloro-4-((3-(2,3-dihydrobenzo[b][1,4]dioxin-6-yl)-2-methylbenzyl)oxy)-2-(4,4,4-trifluorobutoxy)benzyl)amino)-3-hydroxy-2-methylpropanoic acid], the IC50 is 1.2 nM. Molecule `Cc1c(COc2cc(OCC3CCC3)c(CN[C@](C)(CO)C(=O)O)cc2Cl)cccc1-c1ccc2c(c1)OCCO2` [Example 1048, (R)-2-((5-chloro-2-(cyclobutylmethoxy)-4-((3-(2,3-dihydrobenzo[b][1,4]dioxin-6-yl)-2-methylbenzyl)oxy)benzyl)amino)-3-hydroxy-2-methylpropanoic acid] displayed an IC50 of 11.1 nM. `Cc1c(COc2cc(OCc3cccc(CN)c3)c(CN3CCCC[C@H]3C(=O)O)cc2Cl)cccc1-c1ccc2c(c1)OCCO2` [Example 1017, (S)-1-(2-((3-(Aminomethyl)benzyl)oxy)-5-chloro-4-((3-(2,3-dihydrobenzo[b][1,4]dioxin-6-yl)-2-methylbenzyl)oxy)benzyl)piperidine-2-carboxylic acid, bis-trifluoroacetic acid salt] yielded an IC50 of 20.2 nM. `Cc1c(COc2cc(OCc3cncc(C(=O)NCCC(=O)O)c3)c(CN3CC[C@H](O)C3)cc2Cl)cccc1-c1ccc2c(c1)OCCO2` [Example 2008, (S)-3-(5-((4-chloro-5-((3-(2,3-dihydrobenzo[b][1,4]dioxin-6-yl)-2-methylbenzyl)oxy)-2-((3-hydroxypyrrolidin-1-yl)methyl)phenoxy)methyl)nicotinamido)propanoic acid]: the concentration for half-maximal inhibition (IC50) was found to be 5.2 nM.

Consider `CCn1cc(COc2cc(OCc3cccc(-c4ccc5c(c4)OCCO5)c3C)c(Cl)cc2CN[C@H](CO)C(=O)O)cn1` [Example 1005, (R)-2-((5-Chloro-4-((3-(2,3-dihydrobenzo[b][1,4]dioxin-6-yl)-2-methylbenzyl)oxy)-2-((1-ethyl-1H-pyrazol-4-yl)methoxy)benzyl)amino)-3-hydroxypropanoic acid], for which the IC50 stood at 7.9 nM.
